Oligonucleotides are written 5' to 3', each unit as a sugar letter and its base; * is a phosphorothioate linkage, no mark a phosphodiester; rarer units and linkages stand in square brackets, end groups in braces. Plain capitals give the bases only. d = 2'-deoxy (DNA)
Experiments:
[1] = enema, 10 to 12 hours post-administration; about two thirds N-acetyl metabolite; cited from earlier work
[2] = tested on: Crohn's disease; conditions: intravenous, cited from earlier work
[3] = tested on: mild to moderate active left sided ulcerative colitis; experiment: Open label study CS-28: pharmacological activity of ISIS 2302 enema; type: in vivo, human; conditions: 240 mg enema nightly for six weeks
Description: All patients entering the study had moderate to severe mucosal disease at baseline (modified Mayo score, endoscopic appearance component of DAI, of 2 or greater at baseline). […] This was substantially higher than expected.

[4] = in vivo
Procedure: A population of 15 patients with mild to moderate active left sided ulcerative colitis (DIA 3-10) with mucosal friability were studied.
Patients were given 240 mg of ISIS 2302 enema nightly for six weeks. Endoscopic mucosal biopsy samples were taken at baseline and at the end of therapy. Intensive 24-hour plasma pharmacokinetic (PK) sampling was conducted on all patients after the first and last enema dose for quantitative drug analysis. End of treatment colonic biopsy samples were collected for local quantitative PK evaluation from the descending colon.
PK and clinical data from the first 12 patients were analyzed.

[5] = tested on: mild to moderate active distal ulcerative colitis
Procedure: The safety and efficacy of four different dosing regimens of ISIS 2302 enema was assessed for the treatment of ulcerative colitis were analyzed in a placebo-controlled, double-blinded Phase 2 study.
Patients were equally randomized into one of five study arms.
240 mg ISIS 2302 nightly for six weeks.
240 mg ISIS 2302 for 10 consecutive nights followed by 240 mg ISIS 2302 every other night for remaining 32 nights.
240 mg of ISIS 2302 every other night for six weeks.
120 mg of ISIS 2302 for 10 consecutive nights followed by 120 mg of ISIS 2302 every other night for the remaining 32 nights.
Placebo enema nightly for six weeks.
All patients received either a placebo enema or ISIS 2302 enema nightly for six weeks. Patients in arms 2 and 4 received placebo enemas on alternate nights when ISIS 2302 was administered on alternate days.

[6] = tested on: moderate to severe ulcerative colitis; experiment: Subset analysis of patients with moderate to severe disease; type: in vivo, human; conditions: moderate to severe subset (n=26)
Procedure: An analysis of a subset of the population (n=26) of the study with moderate to severe disease was performed. Moderate to severe disease was defined as patients having the following scores using the DAI criteria: baseline stool frequency ≧2, rectal bleeding ≧2, endoscopy ≧2, and investigator's assessment ≧1.

[7] = human, in vivo, iv
Procedure: This was a double-blind, placebo-controlled, randomized (3:1, drug: placebo) study. Four healthy male volunteers were enrolled in each of seven single dose (0.06, 0.12, 0.24, 0.5, 1.0, 1.5 and 2.0 mg/kg) and multiple dose groups (0.2, 0.5, 1.0 and 2.0 mg/kg every other day for four doses). Groups were studied in a rising-dose fashion, and multiple dosing commenced after the first five single groups had completed the trial. […] Subjects remained recumbent, with continuous ECG monitoring for four hours after the beginning of each infusion. Before and at intervals after each infusion, supine blood pressure and pulse, clotting screen including aPTT, thrombin time, prothrombin time, serum complement split products C3a and C5a, neutrophil count, urine microproteins, and standard laboratory safety screen (hematology, blood biochemistry and urinalysis) were measured.
Complement split products were measured by commercially available C3a and C5a assay kits (Amersham).
Drug analysis was performed by capillary gel electrophoresis (CGE) as described by Leeds et al. (Anal. Biochem., 235:36-43, 1996). A phosphorothioate standard oligonucleotide composed of 27 thymidine nucleotides (T27) was added to both plasma and urine as an internal standard. The linear range of concentrations of oligonucleotides detectable in plasma using this method was 10 nM to 20 μM (approximately 0.07 to 140 μg/ml).

[8] = tested on: chronic, unremitting pouchitis; conditions: HPMC enema 240 mg nightly for 6 weeks, twelve patients (p=0.001); cited from earlier work
[9] = tested on: mild to moderate ulcerative colitis; conditions: 240 mg/day rectally for 28 days; placebo 50%; cited from earlier work
[10] = human, in vivo, sc

Compound	plasma levels [1] [ng/mL]	efficacy in Phase II studies ([2]; some subsets of patients)	efficacy on clinical remission and disease activity index scores ([2]; two Phase III trials, moderate to severe Crohn's disease)	patients with DAI significantly improved from baseline to week 6 [3]	patients with mucosal healing and resolution of friability (modified Mayo score of 0 or 1) ([3]; at completion of the study)	Maximum plasma concentrations (Cmax) ([4]; human, 240 mg) [ng/mL]	Mean AUC ([4]; human, 240 mg) [µg·h/mL]	systemically available share of the administered dose [4]	subjects remaining in remission at week 30 of those in remission after 6 weeks ([5]; 240 mg group, placebo 4 of 9 (p=0.12))	median duration of response ([5]; 240 mg group, placebo <3 months) [months]	response rate vs placebo ([5]; 240 mg nightly, weeks 18 and 30 (p=0.04 and 0.03))	stool frequency and rectal bleeding (components of DAI) ([5]; ISIS 2302 enema treatment)	response vs placebo ([5]; the 3 lower dose groups)	change in DAI vs baseline and placebo ([6]; every other night dosing, through week 6)	change in DAI vs baseline and placebo ([6]; nightly dosing, through week 18)	n-1, n-2 and n-3 metabolites as share of total oligonucleotide in plasma [7] [%]	primary endpoint of reduction of PDAI at week 6 [8]	patients requiring additional surgical or medical intervention over baseline during six months [9]	plasma bioavailability [10]
Nc1ccc(O)c(C(=O)O)c1 [mesalamine]	2000	–	–	–	–	–	–	–	–	–	–	–	–	–	–	–	–	–	–
ISIS 2302: 20-base phosphorothioate oligodeoxynucleotide 5′-GCCCAAGCTGGCATCCGTCA-3′ hybridizing to the 3′-untranslated region of human ICAM-1 mRNA (antisense dG*dC*dC*dC*dA*dA*dG*dC*dT*dG*dG*dC*dA*dT*dC*dC*dG*dT*dC*dA)	–	suggested efficacy	ineffective	9 of 12	Seven of 12	2.2 to 38	0.124	less than 1%	10 of 13	≥ 6	significantly better response rate than placebo	durable reduction	failed to demonstrate statistical improvement over placebo	significant (p≦0.05) decrease in DAI	significant (p≦0.05) decrease in DAI	20	reached	None	about 50%

Source: patent US9050354B2, “Therapeutic antisense oligonucleotide compositions for the treatment of inflammatory bowel disease” (Atlantic Pharmaceuticals (Holdings) Limited, priority 2004, dated 2015)
